The test system of assay [1] is mutant hygromycin resistance gene in Mata+IntHYG(rep)eGFP. Description: Yeast cell targeting assay: oligonucleotide-directed alteration of the integrated hygromycin-eGFP target. Format: cell-based. The note with it: for Alteration per 10^5 Aureobasidin^R colonies: average of four experiments with standard deviation.
Assay [2] relates to human β-globin gene. Description: Dual oligonucleotide experiment: screen of hygromycin-resistant colonies for alteration of the β-globin target in the βS YAC (PCR, SNaPshot). The note with it: in hygromycin-selected population; with or without Rad51 overexpression.
The test system of assay [3] is mutated Hyg(rep)eGFP target in Mata-intHyg(rep)eGFP/βYAC. The assay is described as follows: Dual oligonucleotide experiment: conversion efficiency for the hygromycin target (Example 2). Format: cell-based, yeast.
For assay [4], the system named is chromosomal hygromycin mutant gene in LSY678IntHyg(rep)β cells. Description: Dual targeting protocol: correction efficiency (C.E.) of the chromosomal hygromycin mutation (Example 4). Format: cell-based, yeast. The note with it: LSY678IntHyg(rep)β + RAD51 expression plasmid; HU and TSA; compared with FIG. 3.
The test system of assay [5] is human β-globin gene. The assay is described as follows: Dual targeting protocol: second-site editing of the YAC β-globin gene in hygromycin-resistant colonies (SNaPshot, sequencing). The note with it: RAD51 overexpression; HU and TSA.

Consider 4 substances from patent US20040175722A1, “Methods and compositions for reducing screening in oligonucleotide-directed nucleic acid sequence alteration” (priority 2002, published 2004).

“5′-C*T*C* GTGCTTTCAGCTTCGATGTAGGAGGGCGTGGATACGTCCTGCGGGTAAATAGCTGCGCCGATGGTTTC *T*A*C-3′ [Hyg3S/74T]”: in assay [1], the “Fold correction (relative to Hyg3S/74T)” value is listed as 1x and the “Alteration per 10^5 Aureobasidin^R colonies” value is given as 0.22 ± 0.3 per 10^5 Aureobasidin^R colonies.
For “5′-G*C*C* TCACCACCAACTTCATCCACGTTCACCTTGCCTCACAGGGCAGTAACGGCAGACTTCTCCACAGG*A *G*T-3′ [βS-386m]”, in the assay on human β-globin gene [2], the “alteration efficiency of the β-globin gene relative to alteration of the hygromycin target” value is recorded as “approximately 10 fold”.
As to “5′-G*T*A* GAAACCATCGGCGCAGCTATTTACCCGCAGGACGTATCCACGCCCTCCTACATCGAAGCTGAAAGCAC*G *A*G-3′ [Hyg3S/74NT]”, the “Fold correction (relative to Hyg3S/74T)” value in assay [1] was found to be 4.0x. Besides, the “Alteration per 10^5 Aureobasidin^R colonies” value in assay [1] is on record as 0.89 ± 1.3 per 10^5 Aureobasidin^R colonies. The “Hygromycin Alteration Efficiency (/10^5)” value is 12.79 /10^5 in assay [3] (βS-378m Experiment, Mata-intHyg(rep)eGFP/βYAC (HU + TSA)); 96.96 /10^5 in assay [3] (βS-378m Experiment, Mata-intHyg(rep)eGFP/βYAC + pYNARad51 (HU + TSA)); 12.35 /10^5 in assay [3] (βS-386m Experiment, Mata-intHyg(rep)eGFP/βYAC (HU + TSA)); 3.22 /10^5 in assay [3] (βS-386m Experiment, Mata-intHyg(rep)eGFP/βYAC, no HU or TSA). Further, the “effect of RAD51 expression on hygromycin correction efficiency” value in assay [4] was “increases”.
Take “5′-T*A*A* CGGCAGACTTCTCCACAGGAGTCAGGTGCACCGTGGTGTCTGTTTGAGGTTGCTAGTGAACACAG*T *T*G-3′ [βS-378m]”: the “alteration efficiency of the β-globin gene relative to alteration of the hygromycin target” value in the assay with human β-globin gene [2] is “approximately 10 fold”. The “cells bearing the corrected hygromycin that also contain the edited β-globin gene” value in the assay on human β-globin gene [5] is “approximately 10%”.
